Experimental data from ChEMBL document CHEMBL1135231, “Syntheses and binding affinities of 6-nitroquipazine analogues for serotonin transporter. Part 2: 4-substituted 6-nitroquipazines” (Bioorg Med Chem Lett, 2002).

Legend:
[1] = target: T1, Sodium-dependent serotonin transporter (Rattus norvegicus, UniProt P31652); assay: Displacement of [3H]citalopram from rat cortical serotonin transporter (SERT)
[2] = target: T1, Sodium-dependent serotonin transporter; assay: Compound was evaluated for its ability to displace [3H]citalopram binding to the rat cortical Serotonin transporter

T1 sequence (P31652 whole entry): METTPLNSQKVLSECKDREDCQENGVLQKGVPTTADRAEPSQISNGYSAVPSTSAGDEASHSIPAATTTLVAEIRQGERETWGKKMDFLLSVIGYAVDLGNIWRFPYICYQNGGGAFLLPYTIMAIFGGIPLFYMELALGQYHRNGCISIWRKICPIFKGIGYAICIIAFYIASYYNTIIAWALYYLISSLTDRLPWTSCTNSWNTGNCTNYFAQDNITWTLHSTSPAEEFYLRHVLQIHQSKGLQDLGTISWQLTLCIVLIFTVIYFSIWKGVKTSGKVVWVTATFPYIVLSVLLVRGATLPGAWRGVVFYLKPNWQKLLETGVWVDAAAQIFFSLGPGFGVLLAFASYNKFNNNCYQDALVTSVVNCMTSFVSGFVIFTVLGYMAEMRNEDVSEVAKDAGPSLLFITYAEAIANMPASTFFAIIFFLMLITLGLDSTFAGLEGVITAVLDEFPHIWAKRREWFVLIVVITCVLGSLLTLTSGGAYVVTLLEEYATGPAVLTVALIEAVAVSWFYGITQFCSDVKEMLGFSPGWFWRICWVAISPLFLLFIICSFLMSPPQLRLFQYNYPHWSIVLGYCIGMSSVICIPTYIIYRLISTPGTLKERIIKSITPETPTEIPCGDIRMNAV

Compound | Ki [1] [nM] | Ki [2] [nM]
O=[N+]([O-])c1ccc2nc(N3CCNCC3)cc(Cl)c2c1 | 0.03 | 
O=[N+]([O-])c1ccc2nc(N3CCNCC3)cc(N3CCCC3)c2c1 | 61.1 | 
O=CN1CCN(c2cc(Br)c3cc([N+](=O)[O-])ccc3n2)CC1 |  | 1.73
CN(C)Cc1ccccc1Sc1ccc(I)cc1N | 0.013 | 
O=[N+]([O-])c1ccc2nc(N3CCNCC3)cc(-c3ccco3)c2c1 | 5.23 | 
O=[N+]([O-])c1ccc2nc(N3CCNCC3)cc(-c3cccs3)c2c1 | 67.2 | 
O=[N+]([O-])c1ccc2nc(N3CCNCC3)cc(-c3ccccc3)c2c1 | 60 | 
O=[N+]([O-])c1ccc2nc(N3CCNCC3)cc(Cc3ccccc3)c2c1 | 127 | 
C=CCc1cc(N2CCNCC2)nc2ccc([N+](=O)[O-])cc12 | 1.67 | 
C=Cc1cc(N2CCNCC2)nc2ccc([N+](=O)[O-])cc12 | 1.82 | 
O=[N+]([O-])c1ccc2nc(N3CCNCC3)cc(I)c2c1 | 1.73 | 
O=[N+]([O-])c1ccc2nc(N3CCNCC3)cc(Br)c2c1 | 0.37 | 
